In US20050282910A1, “Methods of application of chemical compounds having therapeutic activities in treating cancers” (priority 2003, published 2005):
Converted amounts (≈) assume the structure as drawn. Read-outs that look alike come from different tables or passages of the source.

Experiments:
[1] = system: human leukemia MDR cell line K562/adr; experiment: Reversal of P-glycoprotein-mediated drug resistance by Schisandrin A, Schisandrol A, Schisantherin A, MTT cytotoxicity of anticancer agents; type: cell-based; conditions: for IC50: Homo sapiens, K562/Adr, 72 h
Method: Assays were carried out in triplicate against human leukemia MDR cell line K562/adr, human breast cancer MDR cell line MCF7/adr, and human epidermoid carcinoma MDR cell line KBv200.

[2] = target: T1, MRP1 (Homo sapiens, UniProt P33527); experiment: Daunorubicin accumulation in HL60/adr cells (MRP1-mediated drug efflux), flow cytometry; type: cell-based; conditions: 2 μg/ml daunorubicin; 60 minutes; FIG. 7
T1 construct: human cancer cell line HL60/adr, an MDR cell line characterized by MRP1 overexpression; endogenous in cells; host or cells: HL60/adr (human MDR cancer cell line)
T1 sequence (P33527 whole entry): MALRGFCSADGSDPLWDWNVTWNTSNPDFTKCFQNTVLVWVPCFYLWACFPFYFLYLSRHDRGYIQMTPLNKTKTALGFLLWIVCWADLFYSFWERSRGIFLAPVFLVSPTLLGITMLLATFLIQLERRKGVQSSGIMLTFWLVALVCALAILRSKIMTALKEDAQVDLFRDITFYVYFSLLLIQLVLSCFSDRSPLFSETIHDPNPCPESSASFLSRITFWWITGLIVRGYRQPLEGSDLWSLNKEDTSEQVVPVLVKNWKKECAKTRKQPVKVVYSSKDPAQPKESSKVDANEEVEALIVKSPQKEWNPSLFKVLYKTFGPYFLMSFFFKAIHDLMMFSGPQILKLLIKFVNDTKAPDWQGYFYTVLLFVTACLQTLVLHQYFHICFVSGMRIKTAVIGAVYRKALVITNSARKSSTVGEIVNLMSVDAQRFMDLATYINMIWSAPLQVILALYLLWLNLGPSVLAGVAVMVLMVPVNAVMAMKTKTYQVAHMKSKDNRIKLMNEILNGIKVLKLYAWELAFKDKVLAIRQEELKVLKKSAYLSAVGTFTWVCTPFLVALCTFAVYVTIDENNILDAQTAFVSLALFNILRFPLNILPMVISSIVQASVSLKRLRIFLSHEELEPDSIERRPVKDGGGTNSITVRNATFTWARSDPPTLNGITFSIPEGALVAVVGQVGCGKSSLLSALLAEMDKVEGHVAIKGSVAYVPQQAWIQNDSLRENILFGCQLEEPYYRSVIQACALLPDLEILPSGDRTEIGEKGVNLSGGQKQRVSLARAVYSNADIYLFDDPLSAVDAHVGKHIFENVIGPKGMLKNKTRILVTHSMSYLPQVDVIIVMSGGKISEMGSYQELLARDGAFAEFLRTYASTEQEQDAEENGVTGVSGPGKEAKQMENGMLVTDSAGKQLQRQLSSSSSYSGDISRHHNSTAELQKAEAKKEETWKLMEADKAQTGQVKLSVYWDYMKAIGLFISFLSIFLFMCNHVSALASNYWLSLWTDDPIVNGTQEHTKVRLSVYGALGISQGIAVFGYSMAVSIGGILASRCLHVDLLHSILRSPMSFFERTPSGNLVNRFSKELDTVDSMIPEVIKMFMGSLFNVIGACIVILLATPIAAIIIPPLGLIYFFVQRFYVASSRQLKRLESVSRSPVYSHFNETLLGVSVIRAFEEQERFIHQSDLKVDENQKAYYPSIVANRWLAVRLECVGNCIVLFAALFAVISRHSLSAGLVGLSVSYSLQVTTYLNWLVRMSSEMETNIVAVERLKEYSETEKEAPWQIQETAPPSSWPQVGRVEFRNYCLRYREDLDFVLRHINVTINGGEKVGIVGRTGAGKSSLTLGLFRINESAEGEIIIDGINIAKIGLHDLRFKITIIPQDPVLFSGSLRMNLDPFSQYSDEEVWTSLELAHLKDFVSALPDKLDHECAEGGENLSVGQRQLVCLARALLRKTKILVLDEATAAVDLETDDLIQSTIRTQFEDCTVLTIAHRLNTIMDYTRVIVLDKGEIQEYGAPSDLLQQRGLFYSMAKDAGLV
From the text: MRP1 functions as a drug pump that unilaterally pumps the anticancer agents out of MDR cancer cells. Inhibition of MRP1 results in an increase of intracellular drug concentration within cancer cells.

[3] = target: P-glycoprotein (Homo sapiens, UniProt P08183); experiment: Daunorubicin accumulation in MCF7/adr cells (P-glycoprotein-mediated drug efflux), flow cytometry; type: cell-based; conditions: 2 μg/ml daunorubicin; 0, 1, 10, 20, 40, and 80 μg/ml compound; 60 minutes; FIG. 5
Sequence of P-glycoprotein (P08183 whole entry): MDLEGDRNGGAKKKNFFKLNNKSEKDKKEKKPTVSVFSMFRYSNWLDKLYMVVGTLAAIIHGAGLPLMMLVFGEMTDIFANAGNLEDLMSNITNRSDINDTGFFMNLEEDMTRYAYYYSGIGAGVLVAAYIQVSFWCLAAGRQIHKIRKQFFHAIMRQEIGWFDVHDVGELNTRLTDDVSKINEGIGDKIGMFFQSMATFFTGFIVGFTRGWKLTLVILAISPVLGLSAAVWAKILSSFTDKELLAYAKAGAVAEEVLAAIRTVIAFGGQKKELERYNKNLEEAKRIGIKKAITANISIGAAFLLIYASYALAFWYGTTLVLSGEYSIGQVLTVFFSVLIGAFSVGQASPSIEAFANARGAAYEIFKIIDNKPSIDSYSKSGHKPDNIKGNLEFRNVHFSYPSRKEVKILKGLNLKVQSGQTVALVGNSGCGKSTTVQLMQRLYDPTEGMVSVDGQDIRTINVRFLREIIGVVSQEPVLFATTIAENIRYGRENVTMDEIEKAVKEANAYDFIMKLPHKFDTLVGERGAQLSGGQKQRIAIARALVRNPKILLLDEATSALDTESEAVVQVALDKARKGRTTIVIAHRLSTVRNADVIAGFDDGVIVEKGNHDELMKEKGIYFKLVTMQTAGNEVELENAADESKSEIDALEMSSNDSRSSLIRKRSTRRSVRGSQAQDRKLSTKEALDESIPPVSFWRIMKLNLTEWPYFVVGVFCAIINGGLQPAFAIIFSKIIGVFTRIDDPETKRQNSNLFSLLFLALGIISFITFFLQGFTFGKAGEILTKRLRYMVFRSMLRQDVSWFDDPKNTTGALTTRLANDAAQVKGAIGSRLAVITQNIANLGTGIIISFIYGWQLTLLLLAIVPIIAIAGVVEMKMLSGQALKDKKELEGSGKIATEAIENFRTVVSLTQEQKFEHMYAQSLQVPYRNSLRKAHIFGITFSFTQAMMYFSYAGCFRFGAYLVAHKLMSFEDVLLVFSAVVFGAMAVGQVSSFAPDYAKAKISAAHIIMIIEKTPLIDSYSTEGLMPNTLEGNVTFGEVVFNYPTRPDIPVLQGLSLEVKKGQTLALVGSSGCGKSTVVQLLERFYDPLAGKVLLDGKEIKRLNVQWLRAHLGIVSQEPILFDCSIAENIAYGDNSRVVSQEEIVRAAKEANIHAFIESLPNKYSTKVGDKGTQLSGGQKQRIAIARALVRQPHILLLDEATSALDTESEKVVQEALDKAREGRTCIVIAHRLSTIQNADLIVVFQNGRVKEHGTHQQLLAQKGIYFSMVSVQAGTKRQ
Method: P-glycoprotein functions as a drug pump that unilaterally pumps the anticancer agents out of MDR cancer cells. Inhibition of P-glycoprotein results in an increase of the intracellular drug concentration within cancer cells. […] Cells were collected at 60 minutes after incubation.

[4] = system: HL60/adr; experiment: Reversal of MRP1-mediated drug resistance, MTT cytotoxicity of anticancer agents; type: cell-based, human; conditions: for IC50: Homo sapiens, HL60/ADR, 72 h
Method: Assays were carried out in triplicate against MDR cancer cell HL60/adr. MTT assays as described previously (X.

[5] = system: SMMC7721; experiment: Enhancement of anticancer agent-induced apoptosis and necrosis, Anexin V-FITC/PI; type: cell-based, human; conditions: SMMC7721; vincristine 0.5 μg/ml, Schisandrin B 20 μg/ml; 48 hours
Method: To illustrate the activities of Schisandrin B or its analogs enhancing the apoptosis of cancer cells induced by an anticancer agent according to the present disclosure, human cancer cell line SMMC7721, a non-drug-resistant hepatic cancer cell line, and MCF7, a non-drug-resistant breast cancer cell line, were selected for use. Assays were carried out in triplicates against SMMC7721 or MCF7. […] Cells were collected and the apoptotic cells and necrotic cell percentages were determined using Anexin V-FITC/PI kit (Sigma, St. Louis, Mo., USA) according to manufacturer's instructions. Alternatively, the apoptotic and necrotic cell percentages were measured using DNA Plus kit (Becton-Dickinson, USA) according to the manufacturer's instructions.

[6] = system: human breast cancer MDR cell line MCF7/adr; experiment: cells; conditions: NCI/ADR-RES, 72 h
[7] = system: human epidermoid carcinoma MDR cell line KBv200
[8] = system: human epidermoid carcinoma MDR cell line KBv200; experiment: cells; conditions: KBv200, 72 h
[9] = system: MCF7/adr; experiment: Reversal of drug resistance by ethanol extracts of Schisandra chinensis fruit, MTT cytotoxicity of anticancer agents
[10] = system: human breast cancer MDR cell line MCF7/adr
[11] = system: KBv200; experiment: Reversal of drug resistance by ethanol extracts of Schisandra chinensis fruit, MTT cytotoxicity of anticancer agents
[12] = system: K562/adr; experiment: as above; type: cell-based, human
Method: Assays were carried out in triplicate against human MDR cancer cell lines K562/adr, KBv200, and MCF7/adr. […] Alternatively, flow cytometry assays using FACS Calibur equipped with software Cellquest 3.1f (Becton-Dickinson, Holbrook, N.J.) were applied to count the cell numbers in each sample.

[13] = read-out: IC50 (ng/ml) −Schisandrin A
[14] = read-out: IC50 (ng/ml) −Schisantherin A
[15] = anticancer agent in the presence of Schisandrin A (10 μg/ml), 72 hours
[16] = anticancer agent in the presence of Schisantherin A (10 μg/ml), 72 hours

SMILES: COc1cc2c(c(OC)c1OC)-c1c(cc3c(c1OC)OCO3)C[C@H](C)[C@](C)(O)[C@H]2OC(=O)c1ccccc1 [Schisantherin A]
- sensitivity of MDR cancer cell K562/adr to daunorubicin (in words) ([1]; FIG. 3): increase the sensitivity
- daunorubicin accumulation within HL60/adr cells (in words) [2]: increased with the increasing concentration
- accumulation of daunorubicin within MCF7/adr cells (in words) [3]: proportionately correlated with the increment of the concentration
- drug sensitivity of HL60/adr toward the anticancer agents (in words) ([4]; compound 10 μg/ml): enhanced

SMILES: CC[C@]1(O)C[C@H]2CN(CCc3c([nH]c4ccccc34)[C@@](C(=O)OC)(c3cc4c(cc3OC)N(C=O)[C@H]3[C@@](O)(C(=O)OC)[C@H](OC(C)=O)[C@]5(CC)C=CCN6CC[C@]43[C@@H]65)C2)C1 [Vincristine]
- Apoptotic + necrotic (%) [5]: 6.1 ± 0.4%
- IC50 [6, 13]: 501 ± 129 ng/mL (≈ 0.607 µM)
- IC50 [6, 14]: 501 ± 109 ng/mL (≈ 0.607 µM)
- IC50 (ng/ml) +Schisandrin A [7, 15]: 2.95 ± 0.7 ng/mL
- IC50 (ng/ml) +Schisantherin A [7, 16]: 3.7 ± 0.9 ng/mL
- RF (reversal folds of drug resistance) ([7]; by Schisandrin A (10 μg/ml)): 7.6
- RF (reversal folds of drug resistance) ([7]; by Schisantherin A (10 μg/ml)): 6.1
- IC50 [8, 13]: 22.5 ± 3.2 ng/mL (≈ 0.0273 µM)
- IC50 [8, 14]: 22.5 ± 5.6 ng/mL (≈ 0.0273 µM)
- IC50 ([1]; K562/adr, anticancer agent in the absence of Schisandrin A, 72 hours, read-out: IC50 (ng/ml) −Schisandrin A): 612 ± 176 ng/mL
- IC50 ([1]; K562/adr, anticancer agent in the absence of Schisantherin A, 72 hours, read-out: IC50 (ng/ml) −Schisantherin A): 612 ± 158 ng/mL
- IC50 (ng/ml) +Schisandrin A ([1]; K562/adr, anticancer agent in the presence of Schisandrin A (10 μg/ml), 72 hours): 7.3 ± 2.1 ng/mL
- IC50 (ng/ml) +Schisantherin A ([1]; K562/adr, anticancer agent in the presence of Schisantherin A (10 μg/ml), 72 hours): 7.7 ± 2.1 ng/mL
- RF (reversal folds of drug resistance) ([1]; K562/adr, by Schisandrin A (10 μg/ml)): 83.8
- RF (reversal folds of drug resistance) ([1]; K562/adr, by Schisantherin A (10 μg/ml)): 79.5
- IC50 ([9]; Homo sapiens, NCI/ADR-RES, 72 h, read-out: IC50 (ng/ml) −ethanol extract): 490 ± 112 ng/mL
- IC50 (ng/ml) +ethanol extract ([9]; MCF7/adr, anticancer agent in the presence of ethanol extracts (50 μg/ml), 72 hours): 210 ± 32 ng/mL
- RF (reversal folds of drug resistance) ([9]; MCF7/adr, by ethanol extracts (50 μg/ml)): 2.3
- IC50 (ng/ml) +Schisandrin A [10, 15]: 8.4 ± 2.3 ng/mL
- IC50 (ng/ml) +Schisantherin A [10, 16]: 24.1 ± 9.2 ng/mL
- RF (reversal folds of drug resistance) ([10]; by Schisandrin A (10 μg/ml)): 59.6
- RF (reversal folds of drug resistance) ([10]; by Schisantherin A (10 μg/ml)): 20.9
- IC50 ([11]; Homo sapiens, KBv200, 72 h, read-out: IC50 (ng/ml) −ethanol extract): 42 ± 14 ng/mL
- RF (reversal folds of drug resistance) ([11]; KBv200, by ethanol extracts (50 μg/ml)): 13.5
- IC50 ([12]; Homo sapiens, anticancer agent in the absence of ethanol extracts, 72 hours, read-out: IC50 (ng/ml) −ethanol extract): 870 ± 230 ng/mL
- IC50 (ng/ml) +ethanol extract ([12]; anticancer agent in the presence of ethanol extracts (50 μg/ml), 72 hours): 110 ± 42 ng/mL
- RF (reversal folds of drug resistance) ([12]; by ethanol extracts (50 μg/ml)): 7.9
- IC50 (ng/ml) +Schisandrin A ([4]; HL60/adr, anticancer agent in the presence of Schisandrin A (10 μg/ml), 72 hours): 3.3 ± 0.9 ng/mL
- IC50 (ng/ml) +Schisandrin B ([4]; HL60/adr, anticancer agent in the presence of Schisandrin B (10 μg/ml), 72 hours): <1 ng/mL
- IC50 (ng/ml) +Schisantherin A ([4]; HL60/adr, anticancer agent in the presence of Schisantherin A (10 μg/ml), 72 hours): 3.9 ± 0.9 ng/mL
- RF (reversal folds of drug resistance) ([4]; HL60/adr, by Schisandrin A (10 μg/ml)): 27.0
- RF (reversal folds of drug resistance) ([4]; HL60/adr, by Schisandrin B (10 μg/ml)): >48
- RF (reversal folds of drug resistance) ([4]; HL60/adr, by Schisantherin A (10 μg/ml)): 22.8
- IC50 (ng/ml) +Schisandrin B ([4]; HL60/adr, vincristine in the presence of Schisandrin B 5 μg/ml, 72 hours): 5 ± 1 ng/mL
- IC50 (ng/ml) +Schisandrin B ([4]; HL60/adr, vincristine in the presence of Schisandrin B 10 μg/ml, 72 hours): 4 ± 2 ng/mL
- IC50 (ng/ml) +Schisandrin B ([4]; HL60/adr, vincristine in the presence of Schisandrin B 20 μg/ml, 72 hours): <1 ng/mL
- IC50 ([4]; HL60/adr, anticancer agent in the absence of Schisandrin A, 72 hours, read-out: IC50 (ng/ml) −Schisandrin A): 89 ± 21 ng/mL
- IC50 ([4]; HL60/adr, anticancer agent in the absence of Schisandrin B, 72 hours, read-out: IC50 (ng/ml) −Schisandrin B): 48 ± 12 ng/mL
- IC50 ([4]; HL60/adr, anticancer agent in the absence of Schisantherin A, 72 hours, read-out: IC50 (ng/ml) −Schisantherin A): 89.1 ± 21 ng/mL
- IC50 ([4]; HL60/adr, vincristine in the absence of Schisandrin B, 72 hours, read-out: IC50 (ng/ml) −Schisandrin B): 42 ± 1 ng/mL
